43 compounds from ChEMBL document CHEMBL1126892, “Comparative molecular field analysis of in vitro growth inhibition of L1210 and HCT-8 cells by some pyrazoloacridines” (J Med Chem, 1993) can be followed below.

Test [1] deals with L1210. Briefly: Growth inhibition against mouse leukemia L1210 cell line. The class given is functional, cell-based.
In test [2] the test system is HCT-8. The test can be described thus: Growth inhibition against human colon carcinoma HCT-8 cell line. Format: functional, cell-based.

In general, IC50 refers to the midpoint of a concentration-inhibition curve. A high value points to a need for much substance. Compound `CCN(CC)CCN1Nc2c3ccccc3nc3c(NC(C)=O)ccc1c23` showed an IC50 in test [1] above 10000 nM. In the case of `CCN(CC)CCN1Nc2c3cc(C)ccc3nc3c([N+](=O)[O-])ccc1c23`, the IC50 in test [2] came to 786 nM; in test [1], 863 nM. The like results for `CCN(CC)CCN1Nc2c3cc(S(C)(=O)=O)ccc3nc3c([N+](=O)[O-])ccc1c23` were, in that order, 774 nM and 1830 nM. Regarding `COc1ccc2c(c1)-c1nn(CCN(C)C)c3ccc([N+](=O)[O-])c(c13)N2`, the IC50 in test [2] was 105 nM; in test [1], 396 nM. `CCN(CC)CCN1Nc2c3ccccc3nc3c([N+](=O)[O-])ccc1c23`: the IC50 in test [2] was found to be 185 nM; in test [1], 192 nM. The like results for `CCN(CC)CCCN1Nc2c3cc(OC)ccc3nc3c([N+](=O)[O-])ccc1c23` were, in that order, 764 nM and 1330 nM.

On to `CCCCOc1ccc2c(c1)-c1nn(CCNCCO)c3ccc([N+](=O)[O-])c(c13)N2`, for which the IC50 in test [2] came to 339 nM; in test [1] it was 646 nM. `CCOc1ccc2c(c1)-c1nn(CCCN(C)C)c3ccc([N+](=O)[O-])c(c13)N2` displayed an IC50 in test [2] of 55 nM. `O=[N+]([O-])c1ccc2c3c(c4ccccc4nc13)NN2CCNCCO`: the figures for the 50% inhibitory concentration (IC50) in test [2] and in test [1] were 152 nM and 218 nM, respectively.

Regarding `CCOc1ccc2c(c1)-c1nn(CCNCCO)c3ccc([N+](=O)[O-])c(c13)N2`, the IC50 was 82 nM in test [2] and 325 nM in test [1]. Taken in the same sequence, the figures for `CCCOc1ccc2c(c1)-c1nn(CCN(CC)CC)c3ccc([N+](=O)[O-])c(c13)N2` were 31 nM and 469 nM. The like results for `COc1ccc2c(c1)-c1nn(CCO)c3ccc([N+](=O)[O-])c(c13)N2` were, in that order, above 10000 nM and above 10000 nM. Taken in the same sequence, the figures for `CCN(CC)CCN1Nc2c3cc(OCc4ccccc4)ccc3nc3c([N+](=O)[O-])ccc1c23` were 1140 nM and 2680 nM. For `CCOc1ccc2c(c1)-c1nn(CCN(CC)CC)c3ccc([N+](=O)[O-])c(c13)N2`, half-maximal inhibition in test [2] (IC50) was put at 114 nM.

For the compound `CCN(CC)CCN1Nc2c3cc(O[Si](C)(C)C(C)(C)C)ccc3nc3c([N+](=O)[O-])ccc1c23`, the IC50 in test [2] and in test [1] was 6 nM in each case. As to `CCN(CC)CCN1Nc2c3cc(OC)ccc3nc3c([N+](=O)[O-])cc([N+](=O)[O-])c1c23`, the half-maximal inhibitory concentration (IC50) is 66 nM in test [2] and 399 nM in test [1]. Taken in the same sequence, the figures for `Cc1ccc2c(c1)-c1nn(CCNCCO)c3ccc([N+](=O)[O-])c(c13)N2` were 255 nM and 592 nM. The like results for `CCN(CC)CCn1nc2c3c(c(N)ccc31)N(C)c1ccccc1-2` were, in that order, 1560 nM and above 10000 nM. Taken in the same sequence, the figures for `CSc1ccc2c(c1)-c1nn(CCCN(C)C)c3ccc([N+](=O)[O-])c(c13)N2` were 352 nM and 513 nM. With `CN1c2ccccc2-c2nn(CCNCCO)c3ccc([N+](=O)[O-])c1c23`, the IC50 was found to be 518 nM in test [2] and 510 nM in test [1]. The like results for `CCN(CC)CCn1nc2c3c(c([N+](=O)[O-])ccc31)N(C)c1ccc(OC)cc1-2` were, in that order, 308 nM and 605 nM. On to `CCN(CC)CCN1Nc2c3cc(N(C)C)ccc3nc3c([N+](=O)[O-])ccc1c23`, for which the IC50 in test [2] amounted to 317 nM; in test [1], 896 nM. In the case of `CCOc1ccc2c(c1)-c1nn(CCN(C)C)c3ccc([N+](=O)[O-])c(c13)N2`, the figures for the IC50 in test [2] and in test [1] were 25 nM and 275 nM, respectively. The compound `CN1Nc2c3ccccc3nc3c([N+](=O)[O-])ccc1c23` yielded an IC50 in test [1] above 10000 nM.

Regarding `COc1ccc2c(c1)-c1nn(CCN(C)C)c3c([N+](=O)[O-])cc([N+](=O)[O-])c(c13)N2`, the values for the IC50 in test [2] and in test [1] were 15 nM and 49 nM, respectively. In the case of `CCCCOc1ccc2c(c1)-c1nn(CCN(CC)CC)c3ccc([N+](=O)[O-])c(c13)N2`, the IC50 in test [2] was 73 nM; in test [1], 1180 nM. Regarding `CCN(CC)CCN1Nc2c3cc(OC(=O)C(C)(C)C)ccc3nc3c([N+](=O)[O-])ccc1c23`, the IC50 in test [2] and in test [1] was 10 nM throughout.

For `CC(=O)Oc1ccc2nc3c([N+](=O)[O-])ccc4c3c(c2c1)NN4CCCN(C)C`, the results for the IC50 in test [2] and in test [1] were 11 nM and 1 nM, respectively. For the compound `CCN(CC)CCN1Nc2c3cc(OC)ccc3nc3c([N+](=O)[O-])ccc1c23`, the IC50 in test [2] stood at 123 nM; in test [1] it was 469 nM.

With `CCNCCN1Nc2c3cc(OC)ccc3nc3c([N+](=O)[O-])ccc1c23`, the values for the IC50 in test [2] and in test [1] were 124 nM and 208 nM, respectively. Taken in the same sequence, the figures for `CN(C)CCCN1Nc2c3cc(OC(=O)C(C)(C)C)ccc3nc3c([N+](=O)[O-])ccc1c23` were 27 nM and 8 nM.

For the compound `CCN(CC)CCN1Nc2c3cccc(OC)c3nc3c([N+](=O)[O-])ccc1c23`, the IC50 worked out at 506 nM in test [2] and 645 nM in test [1]. The like results for `CCN(CC)CCn1nc2c3c(c(/N=C/N(C)C)ccc31)N(C)c1ccccc1-2` were, in that order, 297 nM and 785 nM. Turning to `CCN(CC)CCN1c2ccccc2-c2nn(CCN(CC)CC)c3ccc([N+](=O)[O-])c1c23`, the results for the IC50 in test [2] and in test [1] were 788 nM and 877 nM, respectively. With `O=[N+]([O-])c1ccc2c3c(c4ccccc4nc13)NN2CCO`, the IC50 in test [1] was above 10000 nM. `C=Cn1nc2c3c(c([N+](=O)[O-])ccc31)N(C)c1ccccc1-2` gave an IC50 in test [1] above 10000 nM. For `CCN(CC)CCn1nc2c3c(c([N+](=O)[O-])ccc31)N(C)c1ccccc1-2`, the figures for the IC50 in test [2] and in test [1] were 901 nM and 618 nM, respectively.

Take `CN(C)CCCN1Nc2c3cc(O)ccc3nc3c([N+](=O)[O-])ccc1c23`: half-maximal inhibition in test [1] (IC50) required 2 nM. `CCN(CC)CCN1Nc2c3cc(OC(C)=O)ccc3nc3c([N+](=O)[O-])ccc1c23`: the IC50 in test [2] is 5 nM; in test [1], 4 nM. For the compound `C=CCN1c2ccccc2-c2nn(CCNCCO)c3ccc([N+](=O)[O-])c1c23`, the IC50 was determined as 1220 nM in test [2] and 2710 nM in test [1].

For the compound `CN(C)CCN1Nc2c3cc(N(C)C)ccc3nc3c([N+](=O)[O-])ccc1c23`, the IC50 was 164 nM in test [2] and 601 nM in test [1].

Turning to `COc1ccc2c(c1)-c1nn(CCNCCO)c3ccc([N+](=O)[O-])c(c13)N2`, the IC50 in test [2] worked out at 193 nM; in test [1] it was 450 nM. The like results for `COc1ccc2c(c1)-c1nn(CCCN(C)C)c3ccc([N+](=O)[O-])c(c13)N2` [PYRAZOLOACRIDINE] were, in that order, 136 nM and 424 nM.
